In BindingDB's records for doi:10.1021/jm00018a001 (Smithkline Beecham Pharmaceuticals, 1995):

Assays:
[1] = target: Alpha-1B adrenergic receptor (Mesocricetus auratus) (UniProt P18841); experiment: Binding affinity against Alpha-1B adrenergic receptor from hamster clones.
[2] = target: Alpha-1B adrenergic receptor (Mesocricetus auratus) (UniProt P18841); experiment: The compound was tested for binding affinity against Alpha-1B adrenergic receptor, from hamster clones.

Chain of Alpha-1B adrenergic receptor (Mesocricetus auratus) (P18841 whole entry, looked up): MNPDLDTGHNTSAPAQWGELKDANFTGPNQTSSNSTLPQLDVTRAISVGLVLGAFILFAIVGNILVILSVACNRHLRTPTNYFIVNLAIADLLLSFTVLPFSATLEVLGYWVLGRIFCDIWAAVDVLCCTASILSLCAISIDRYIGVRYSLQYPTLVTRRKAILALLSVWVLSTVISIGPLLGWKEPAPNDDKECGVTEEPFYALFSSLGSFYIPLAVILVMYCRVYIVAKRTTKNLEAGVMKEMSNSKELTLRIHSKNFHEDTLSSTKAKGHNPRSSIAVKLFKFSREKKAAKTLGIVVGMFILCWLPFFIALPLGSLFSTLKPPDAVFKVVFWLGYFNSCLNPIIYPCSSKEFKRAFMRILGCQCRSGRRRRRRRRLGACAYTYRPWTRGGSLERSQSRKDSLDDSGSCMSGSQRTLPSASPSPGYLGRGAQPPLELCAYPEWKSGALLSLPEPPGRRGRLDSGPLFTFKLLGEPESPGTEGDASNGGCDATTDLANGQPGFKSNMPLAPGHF

Row | SMILES | Ki [1] | Ki [2]
1 | COc1cc2c(cc1OC)CN(c1cc(N)c3cc(OC)c(OC)cc3n1)CC2 | 0.11 nM | 
2 | O=C(NC1CCN(CCc2c[nH]c3ccccc23)CC1)c1ccccc1 [N-{1-[2-(1H-Indol-3-yl)-ethyl]-piperidin-4-yl}-benzamide(indoramin)] |  | 25 nM
3 | COc1cc2nc(N(C)CCCNC(=O)C3CCCO3)nc(N)c2cc1OC (stereo not drawn) [N-{3-[(4-amino-6,7-dimethoxyquinazolin-2-yl)(methyl)amino]propyl}tetrahydrofuran-2-carboxamide] | 12 nM | 
